From patent publication US12577267B2, “Pyrimidine compounds for use as MAP4K1 inhibitors” (GLENMARK SPECIALITY S.A., priority 2021, dated 2026)
Counter-ions that a name gives are not always drawn. Like-named read-outs stand apart in the source and are kept apart here.

Biological target: MAP4K-1 enzyme (Homo sapiens, UniProt Q92918)
Assay: FRET one step binding assay (tracer displacement)
Details: for inhibition at 1 µM / % Inhibition at 1 μM: 1 μM compound; for inhibition at 10 µM / % Inhibition at 10 μM: 10 μM compound
Method: This is a one step binding assay based on the binding and displacement of the labeled tracer, where compound addition is followed by addition of the anti-GST tagged europium (Eu) as the donor and Alexa Fluor-labeled tracer as the acceptor.
Test compounds were dissolved in dimethylsulfoxide (DMSO) to prepare 10.0 mM stock solutions and diluted to the desired concentration. The final concentration of DMSO in the reaction was 3% (v/v). The assay mixture was prepared by mixing 2 nM of the Eu-Anti-GST Antibody and 5 nM MAP4K-1 enzyme in the Kinase buffer containing 50 mM HEPES (pH 7.5), 10 mM MgCl2, 1 mM EGTA, 0.01% Brij-35 with or without the desired concentration of the compound. The reaction was incubated on ice for 15 min. […] After shaking for 5 min the reaction was further incubated for 1 hour at room temperature and this was kept at 4° C. and read on ARTEMIS reader as per the kit instructions (Thermo). […] The activity was calculated as percent of control reaction. IC50 values were calculated from dose response curve by nonlinear regression analysis using GraphPad Prism software.

Chain of MAP4K-1 enzyme (Q92918 whole entry): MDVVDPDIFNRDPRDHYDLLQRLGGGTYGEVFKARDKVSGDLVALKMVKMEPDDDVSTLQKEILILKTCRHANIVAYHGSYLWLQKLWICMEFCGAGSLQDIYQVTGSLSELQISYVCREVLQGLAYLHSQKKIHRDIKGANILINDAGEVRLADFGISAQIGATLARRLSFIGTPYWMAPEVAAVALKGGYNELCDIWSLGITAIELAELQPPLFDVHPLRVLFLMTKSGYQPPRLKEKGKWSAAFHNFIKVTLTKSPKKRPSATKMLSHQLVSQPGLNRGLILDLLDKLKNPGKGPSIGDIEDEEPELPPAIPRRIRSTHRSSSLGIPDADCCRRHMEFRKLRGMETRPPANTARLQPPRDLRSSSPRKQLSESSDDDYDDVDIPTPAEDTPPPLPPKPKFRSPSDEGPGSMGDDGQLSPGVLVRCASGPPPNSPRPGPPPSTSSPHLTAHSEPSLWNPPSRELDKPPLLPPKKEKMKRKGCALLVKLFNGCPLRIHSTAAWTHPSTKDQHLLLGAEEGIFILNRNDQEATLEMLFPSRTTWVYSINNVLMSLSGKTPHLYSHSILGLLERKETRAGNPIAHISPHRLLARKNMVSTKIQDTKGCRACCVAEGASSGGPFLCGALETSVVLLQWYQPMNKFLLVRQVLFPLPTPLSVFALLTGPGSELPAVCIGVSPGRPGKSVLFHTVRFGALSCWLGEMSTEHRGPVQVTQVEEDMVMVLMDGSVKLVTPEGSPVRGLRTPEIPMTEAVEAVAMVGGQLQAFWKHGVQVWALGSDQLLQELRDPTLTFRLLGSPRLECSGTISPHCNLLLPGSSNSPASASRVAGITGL

Row | Structure (SMILES) | inhibition at 1 µM [%] | inhibition at 10 µM [%] | IC50 (IC50 (nM)) [nM] | % Inhibition at 1 μM [%] | % Inhibition at 10 μM [%] | IC50 (read-out: IC50) [nM]
1 | CCN1CCc2cc(OC)c(Nc3ncc(Cl)c(Nc4ccc(OS(=O)(=O)F)cc4P(C)(C)=O)n3)cc2C1 [Example 9, 4-((5-Chloro-2-((2-ethyl-6-methoxy-1,2,3,4-tetrahydroisoquinolin-7-yl)amino)pyrimidin-4-yl)amino)-3-(dimethylphosphoryl) phenyl sulfofluoridate dihydrochloride] | 78.5 | 78.8 | < 50 |  |  | 
2 | CN1CCc2cc(OC(F)F)c(Nc3ncc(Cl)c(Nc4ccc(OS(=O)(=O)F)cc4P(C)(C)=O)n3)cc2C1 [Example 10, 4-((5-Chloro-2-((6-(difluoromethoxy)-2-methyl-1,2,3,4-tetrahydroqisoquinolin-7-yl)amino)pyrimidin-4-yl)amino)-3-(dimethylphosphoryl)phenyl sulfurofluoridate dihydrochloride] | 92.3 | 89 | < 50 |  |  | 
3 | COc1cc2c(cc1Nc1ncc(Cl)c(Nc3ccc(OS(=O)(=O)F)cc3P(C)(C)=O)n1)C(C)(C)N(C)CC2 [Example 11, 4-((5-Chloro-2-((6-methoxy-1,1,2-trimethyl-1,2,3,4-tetrahydroisoquinolin-7-yl)amino)pyrimidin-4-yl)amino)-3-(dimethylphosphoryl)phenyl sulfurofluoridate dihydrochloride] | 75.1 | 87.2 | < 50 |  |  | 
4 | COc1cc2c(cc1Nc1ncc(Cl)c(Nc3ccc(OS(=O)(=O)F)cc3P(C)(C)=O)n1)CN(CCF)CC2 [Example 13, 4-((5-Chloro-2-((2-(2-fluoroethyl)-6-methoxy-1,2,3,4-tetrahydroisoquinolin-7-yl)amino)pyrimidin-4-yl)amino)-3-(dimethylphos-phoryl)phenylsulfofluoridate dihydrochloride] | 79.7 | 81 | < 50 |  |  | 
5 | COc1cc2c(cc1Nc1ncc(Cl)c(Nc3c(F)cc(OS(=O)(=O)F)cc3P(C)(C)=O)n1)CN(C)CC2 [Example 14, 4-((5-Chloro-2-((6-methoxy-2-methyl-1,2,3,4-tetrahydroisoquinolin-7-yl)amino)pyrimidin-4-yl)amino)-3-(dimethylphosphoryl)-5-fluorophenylsulfurofluoridate dihydrochloride] | 89.7 | 93.3 | < 50 |  |  | 
6 | COc1cc2c(cc1Nc1ncc(Cl)c(Nc3c(C)cc(OS(=O)(=O)F)cc3P(C)(C)=O)n1)CN(C)CC2 [Example 15, 4-((5-Chloro-2-((6-methoxy-2-methyl-1,2,3,4-tetrahydroisoquinolin-7-yl)amino)pyrimidin-4-yl)amino)-3-(dimethylphosphoryl)-5-methylphenyl sulfurofluoridate dihydrochloride] | 78.6 | 91.8 | > 500 |  |  | 
7 | COc1cc2c(cc1Nc1ncc(Cl)c(Nc3ccc(OS(=O)(=O)F)cc3P(C)(C)=O)n1)CN(C1COC1)CC2 [Example 16, 4-((5-Chloro-2-((6-methoxy-2-(oxetan-3-yl)-1,2,3,4-tetrahydroisoquinolin-7-yl)amino)pyrimidin-4-yl)amino)-3-(dimethylphosphoryl)phenyl sulfurofluoridate dihydrochloride] | 87.3 | 86 | < 50 |  |  | 
8 | COc1cc2c(cc1Nc1ncc(Cl)c(Nc3ccc(OS(=O)(=O)F)cc3P(C)(C)=O)n1)C(=O)N(C)CC2 [Example 17, 4-((5-Chloro-2-((6-methoxy-2-methyl-1-oxo-1,2,3,4-tetrahydroisoquinolin-7-yl)amino)pyrimidin-4-yl)amino)-3-(dimethylphosphoryl)phenyl sulfurofluoridatehydrochloride] | 86.6 | 90.2 | < 50 |  |  | 
9 | COc1cc2c(cc1Nc1ncc(Cl)c(Nc3cc(OS(=O)(=O)F)ccc3P(C)(C)=O)n1)CN(C)CC2 [Example 18, 3-((5-Chloro-2-((6-methoxy-2-methyl-1,2,3,4-tetrahydroisoquinolin-7-yl)amino)pyrimidin-4-yl)amino)-4-(dimethylphosphoryl)phenyl sulfurofluoridate dihydrochloride] | 87.3 | 83.2 | < 50 |  |  | 
10 | COc1cc2c(cc1Nc1ncc(Cl)c(Nc3cccc(OS(=O)(=O)F)c3P(C)(C)=O)n1)CN(C)CC2 [Example 19, 3-((5-Chloro-2-((6-methoxy-2-methyl-1,2,3,4-tetrahydroisoquinolin-7-yl)amino)pyrimidin-4-yl)amino)-2-(dimethylphosphoryl) phenylsulfofluoridate dihydrochloride] | 76.6 | 78.2 | < 50 |  |  | 
11 | COc1cc2c(cc1Nc1ncc(Cl)c(Nc3ncc(OS(=O)(=O)F)cc3P(C)(C)=O)n1)CN(C)CC2 [Example 20, 6-((5-Chloro-2-((6-methoxy-2-methyl-1,2,3,4-tetrahydroisoquinolin-7-yl)amino)pyrimidin-4-yl)amino)-5-(dimethylphosphoryl)pyridin-3-yl sulfofluoridate dihydrochloride] | 80.1 | 75.5 | < 50 |  |  | 
12 | COc1cc2c(cc1Nc1ncc(Cl)c(Nc3ccc(OS(=O)(=O)F)nc3P(C)(C)=O)n1)CN(C)CC2 [Example 21, 5-((5-Chloro-2-((6-methoxy-2-methyl-1,2,3,4-tetrahydroisoquinolin-7-yl)amino)pyrimidin-4-yl)amino)-6-(dimethylphosphoryl)pyridin-2-yl sulfofluoridate dihydrochloride] | 79.2 | 81.6 | < 50 |  |  | 
13 | COc1nc2c(cc1Nc1ncc(Cl)c(Nc3ccc(OS(=O)(=O)F)cc3P(C)(C)=O)n1)CN(C)CC2 [Example 22, 4-((5-Chloro-2-((2-methoxy-6-methyl-5,6,7,8-tetrahydro-1,6-naphthyridin-3-yl)amino)pyrimidin-4-yl)amino)-3-(dimethylphosphoryl)phenyl sulfofluoridate] |  |  |  | 75.12 | 82.60 | < 50
14 | COc1cc2c(cc1Nc1ncc(Cl)c(Nc3ccc(OS(=O)(=O)F)cc3P(C)(C)=O)n1)CN(C)C(C)(C)C2 [Example 25, 4-((5-Chloro-2-((6-methoxy-2,3,3-trimethyl-1,2,3,4-tetrahydroisoquinolin-7-yl)amino)pyrimidin-4-yl)amino)-3-(dimethylphosphoryl)phenyl sulfofluoridate dihydrochloride] | 85.9 | 90.7 | < 50 |  |  | 
15 | CN1CCc2cc(F)c(Nc3ncc(Cl)c(Nc4ccc(OS(=O)(=O)F)cc4P(C)(C)=O)n3)cc2C1 [Example 26, 4-((5-Chloro-2-((6-fluoro-2-methyl-1,2,3,4-tetrahydroisoquinolin-7-yl)amino)pyrimidin-4-yl)amino)-3-(dimethylphosphoryl)phenyl sulfofluoridate dihydrochloride] | 75.8 | 76.5 | < 50 |  |  | 
16 | COc1cc2c(cc1Nc1ncc(Cl)c(Nc3cc(F)c(OS(=O)(=O)F)cc3P(C)(C)=O)n1)CN(C)CC2 [Example 27, 4-((5-Chloro-2-((6-methoxy-2-methyl-1,2,3,4-tetrahydroisoquinolin-7-yl)amino)pyrimidin-4-yl)amino)-5-(dimethylphosphoryl)-2-fluorophenyl sulfofluoridate dihydrochloride] | 81.1 | 82.6 | < 50 |  |  | 
17 | COc1cc2c(cc1Nc1ncc(Cl)c(Nc3ccc(OS(=O)(=O)F)cc3P(C)(C)=O)n1)COCC2 [Example 28, 4-((5-Chloro-2-((6-methoxyisochroman-7-yl)amino)pyrimidin-4-yl)amino)-3-(dimethylphosphoryl)phenyl sulfofluoridate hydrochloride] | 69.7 | 75.9 | < 50 |  |  | 
18 | COc1cc2c(cc1Nc1ncc(Cl)c(Nc3cnc(OS(=O)(=O)F)cc3P(C)(C)=O)n1)CN(C)CC2 [Example 37, 5-((5-Chloro-2-((6-methoxy-2-methyl-1,2,3,4-tetrahydroisoquinolin-7-yl)amino)pyrimidin-4-yl)amino)-4-(dimethylphosphoryl)pyridin-2-ylsulfofluoridate] |  |  |  | 84.45 | 84.73 | < 50
19 | COc1cc2c(cc1Nc1ncc(Cl)c(Nc3ccc(OS(=O)(=O)F)cc3P(C)(C)=O)n1)CNCC2 [Example 38, 4-((5-Chloro-2-((6-methoxy-1,2,3,4-tetrahydroisoquinolin-7-yl)amino)pyrimidin-4-yl)amino)-3-(dimethylphosphoryl)phenylsulfofluoridate dihydrochloride] | 84.5 | 85.7 | < 50 |  |  | 
20 | [2H]C([2H])([2H])Oc1cc2c(cc1Nc1ncc(Cl)c(Nc3ccc(OS(=O)(=O)F)cc3P(C)(C)=O)n1)CNCC2 [Example 39, 4-((5-Chloro-2-((6-methoxy-d3-1,2,3,4-tetrahydroisoquinolin-7-yl)amino)pyrimidin-4-yl)amino)-3-(dimethylphosphoryl)phenyl sulfofluoridate dihydrochloride] | 75.1 | 87 | < 50 |  |  | 
